Patent publication US8440853B2, “Ester compound and use thereof” (Sumitomo Chemical Company, Limited, priority 2010, dated 2013)

What was measured:
Type in all cases: in vivo
[1] = system: German cockroaches (Blattella germanica); assay: Knock-down test, oil solution sprayed on German cockroaches (Test Example 2); settings: adult German cockroaches, 0.1% (w/v) oil solution, 1.5 ml sprayed
Protocol: Zero point one (0.1) part of the compound of the present inventions (1), (2),(3) and (5) was dissolved in 10 parts of isopropyl alcohol and the solution was mixed with 89.9 parts of deodorized kerosene to prepare a 0.1% (w/v) oil solution.
Ten adult German cockroaches (Blattella germanica, 5 males and 5 females) were released in a test container (diameter 8.75 cm, 7.5 cm high, the bottom face is made of 16 mesh metallic wire), the inner face on which butter was applied, and the container was set at the bottom of a test chamber (bottom face: 46 cm×46 cm, height: 70 cm).
Each 1.5 ml of the oil solution of the compound of the present invention (1), (2), (3) and (5) was sprayed using a spray gun at a pressure of 0.4 kg/cm^2 from 60 cm higher than the upper face of the container. Thirty seconds after the spraying, the container was pulled out from the chamber. Two minutes after spraying, the number of knocked-down cockroaches was counted and a knock-down ratio was determined (repeated once). A knocked-down ratio was calculated by the following equation. Knocked-down ratio (%)=(Number of knocked-down cockroaches/Number of test cockroaches)×100 The results (2 minutes after spraying) are shown in Table 2.

[2] = system: American cockroaches (Periplaneta Americana); assay: Knock-down test, oil solution sprayed on American cockroaches (Test Example 1); settings: adult American cockroaches, 0.1% (w/v) oil solution, 1.5 ml sprayed
Protocol: Zero point one (0.1) part of the compound of the present inventions (1) was dissolved in 10 parts of isopropyl alcohol and the solution was mixed with 89.9 parts of deodorized kerosene to prepare a 0.1% (w/v) oil solution.
Six adult American cockroaches (Periplaneta Americana, 3 males and 3 females) were released in a test container (diameter 12.5 cm, 10 cm high, the bottom face is made of 16 mesh metallic wire), the inner face on which butter was applied, and the container was set at the bottom of a test chamber (bottom face: 46 cm×46 cm, height: 70 cm). One point five (1.5) ml of the oil solution of the compound of the present invention (1) was sprayed using a spray gun at a pressure of 0.4 kg/cm^2 from 60 cm higher than the upper face of the container. Thirty seconds after the spraying, the container was pulled out from the chamber. Ten minutes after spraying, the number of knocked-down cockroaches was counted and a knock-down ratio was determined (repeated twice). The knocked-down ratio was calculated by the following equation. Knocked-down ratio (%)=(Number of knocked-down cockroaches/Number of test cockroaches)×100

[3] = system: common mosquitoes (Culex pipens pallens); assay: Knock-down test, oil solution sprayed into glass chamber with common mosquitoes (Test Example 3); settings: adult female common mosquitoes, 0.00625% (w/v) oil solution sprayed into 70 cm cubic glass chamber
Protocol: Zero point zero zero six two five(0.00625) part of the compound of the present invention (1) was dissolved in 10 parts of isopropyl alcohol, and the solution was mixed with 89.99375 parts of deodorized kerosene to prepare a 0.00625% (w/v) oil solution.
Ten adult female common mosquitoes (Culex pipens pallens) were released in a cubic glass chamber having each side of 70 cm. The oil solution of the compound of the present invention (1) was sprayed into the chamber through a small window on the side of the chamber using a spraying gun at a pressure of 0.9 kg/cm^2. Ten minutes after spraying, the number of knocked-down mosquitoes was counted and a knock-down ratio was determined. A knocked-down ratio was calculated by the following equation. Knocked-down ratio (%)=(Number of knocked-down mosquitoes/Number of test mosquitoes)×100

[4] = system: houseflies (Musca domestica); assay: Knock-down test, oil solution sprayed into glass chamber with houseflies (Test Example 4); settings: adult houseflies, 0.00625% (w/v) oil solution, 0.7 ml sprayed into 70 cm cubic glass chamber
Protocol: Zero point zero zero six two five(0.00625) part of the compound of the present invention (1), (3) and (4) was dissolved in 10 parts of isopropyl alcohol, and the solution was mixed with 89.99375 parts of deodorized kerosene to prepare a 0.00625% (w/v) oil solution.
Ten adult houseflies (Musca domestica) were released in a cubic glass chamber having each side of 70 cm, and 0.7 ml of the oil solution of the compound of the present invention (1), (3) and (4) was sprayed into the chamber through a small window on the side of the chamber using a spraying gun at a pressure of 0.9 kg/cm^2. Seven minutes after spraying, the number of knocked-down flies was counted and a knock-down ratio was determined. A knocked-down ratio was calculated by the following equation. Knocked-down ratio (%)=(Number of knocked-down flies/Number of test flies)×100

SMILES	Knock-down ratio (%) 2 minutes after spraying [1] [%]	Knock-down ratio (%) 10 minutes after spraying [2] [%]	Knock-down ratio (%) 10 minutes after spraying [3] [%]	Knock-down ratio (%) 7 minutes after spraying [4] [%]
CCSC(C#N)=C[C@@H]1[C@@H](C(=O)OCc2c(F)c(F)c(C)c(F)c2F)C1(C)C (relative stereo) [compound of the present invention (5), 4-methyl-2,3,5,6-tetrafluorobenzyl=(1R)-trans-3-[(1EZ)-2-cyano-2-(ethylthio)ethenyl]-2,2-dimethylcyclopropane carboxylate]	100			
COCc1c(F)c(F)c(COC(=O)[C@@H]2[C@@H](/C=C(\C#N)SC)C2(C)C)c(F)c1F [compound of the present invention (1), 4-methoxymethyl-2,3,5,6-tetrafluorobenzyl=(1R)-trans-3-[(1E)-2-cyano-2-(methylthio)ethenyl]-2,2-dimethylcyclopropane carboxylate]	100	100	94	100
CCCCSC(C#N)=C[C@@H]1[C@@H](C(=O)OCc2c(F)c(F)c(COC)c(F)c2F)C1(C)C [compound of the present invention (2), 4-methoxymethyl-2,3,5,6-tetrafluorobenzyl=(1R)-trans-3-[(1EZ)-2-cyano-2-(butylthio)ethenyl]-2,2-dimethylcyclopropane carboxylate]	100			
CCSC(C#N)=C[C@@H]1[C@@H](C(=O)OCc2c(F)c(F)c(COC)c(F)c2F)C1(C)C [compound of the present invention (3), 4-methoxymethyl-2,3,5,6-tetrafluorobenzyl=(1R)-trans-3-[(1EZ)-2-cyano-2-(ethylthio)ethenyl]-2,2-dimethylcyclopropane carboxylate]	100			95
